This note sets out measurements from patent publication US8138171B2, “Dioxolane and dioxolanone fused indolobenzadiazepine HCV NS5B inhibitors” (Bristol-Myers Squibb Company, priority 2008, dated 2012).

pEC50, pIC50: −log10 of the molar value. Read-outs that look alike come from different tables or passages of the source.

For one assay, the system named is HCV replicon cells. In words: HCV replicon FRET assay. It is filed as cell-based. The following applies: Hepatitis C virus. The text has this: FRET Assay Preparation. To perform the HCV FRET screening assay, 96-well cell culture plates were used. The FRET peptide (Anaspec, Inc.) (Taliani et al., Anal. Biochem. 1996, 240, 60-67) contains a fluorescence donor, EDANS, near one end of the peptide and an acceptor, DABCYL, near the other end. The fluorescence of the peptide is quenched by […] resonance energy transfer (RET) between the donor and the acceptor, but as the NS3 protease cleaves the peptide the products are released from RET quenching and the fluorescence of the donor becomes apparent. The assay reagent was made as follows: 5× cell Luciferase cell culture lysis reagent from Promega (#E153A) diluted to 1× with dH2O, NaCl added to 150 mM final, the FRET peptide diluted to 20 uM final from a 2 mM stock.
To prepare plates, HCV replicon cells, with or without a Renilla luciferase reporter gene, were trypsinized and placed into each well of a 96-well plate with titrated test compounds added in columns 3 through 12; columns 1 and 2 contained a control compound (HCV protease inhibitor), and the bottom row contained cells without compound. The plates were then placed in a CO2 incubator at 37° C.
Assays. Subsequent to addition of the test compounds described above (FRET Assay Preparation), at various times the plate was removed and Alamar blue solution (Trek Diagnostics, #00-100) was added per well as a measure of cellular toxicity, After reading in a Cytoflour 4000 instrument (PE Biosystems), plates were rinsed with PBS and then used for FRET assay by the addition of 30 ul of the FRET peptide assay reagent described above (FRET Assay Preparation) per well. The plate was then placed into the Cytoflour 4000 instrument which had been set to 340 excite/490 emission, automatic mode for 20 cycles and the plate read in a kinetic mode. Typically, the signal to noise using an endpoint analysis after the reads was at least three-fold. Alternatively, after Alamar blue reading, plates were rinsed with PBS, 50 ul of DMEM (high glucose) without phenol red was added and plates were then used for luciferase assay using the Promega Dual-Glo Luciferase Assay System.
Compound analysis was determined by quantification of the relative HCV replicon inhibition and the relative cytotoxicity values. To calculate cytoxicity values, the average Alamar Blue fluorescence signals from the control wells were set as 100% non-toxic. The individual signals in each of the compound test wells were then divided by the average control signal and multiplied by 100% to determine […]. To calculate the HCV replicon inhibition values, an average background value was obtained from the two wells containing the highest amount of HCV protease inhibitor at the end of the assay period. These numbers were similar to those obtained from naive Huh-7 cells.
The background numbers were then subtracted from the average signal obtained from the control wells and this number was used as 100% activity. The individual signals in each of the compound test wells were then divided by the averaged control values after background subtraction and multiplied by 100% to determine percent activity. EC50 values for a protease inhibitor titration were calculated as the concentration which caused a 50% reduction in FRET or luciferase activity. The two numbers generated for the compound plate, percent cytoxicity and percent activity were used to determine compounds of interest for further analysis.
A general note: Replicon systems follow genome replication, usually without infectious particles.

Assay [1] has as its target T1, HCV NS5B RdRp genotype 1b (Hepatitis C virus genotype 1b, UniProt P26663).
T1 construct: The protein was expressed with an 18 amino acid C-terminal truncation to enhance the solubility; made in house; host or cells: E. coli BL21(DE3), pET21a
In words: Modified HCV NS5B RdRp enzyme assay (preincubation protocol). The format is biochemical. As for the experimental part:
HCV NS5B RdRp cloning, expression, and purification. The cDNA encoding the NS5B protein of HCV, genotype 1b, was cloned into the pET21a expression vector. The protein was expressed with an 18 amino acid C-terminal truncation to enhance the solubility. The E. coli competent cell line BL21(DE3) was used for expression of the protein. Cultures were grown at 37° C. for ˜4 hours until the cultures reached an optical density of 2.0 at 600 nm. The cultures were cooled to 20° C. and induced with 1 mM IPTG. Fresh ampicillin was added to a final concentration of 50 μg/ml and the cells were grown overnight at 20° C.
Cell pellets (3 L) were lysed for purification to yield 15-24 […] of purified NS5B. The lysis buffer consisted of 20 mM Tris-HCl, pH 7.4, 500 mM NaCl, 0.5% triton X-100, 1 mM DTT, 1 mM EDTA, 20% glycerol, 0.5 mg/ml lysozyme, 10 mM MgCl2, 15 ug/ml deoxyribonuclease I, and Complete™ protease inhibitor tablets (Roche). After addition of the lysis buffer, frozen cell pellets were resuspended using a tissue homogenizer. To reduce the viscosity of the sample, aliquots of the lysate were sonicated on ice using a microtip attached to a Branson sonicator. The sonicated lysate was centrifuged at 100,000×g for 1 hr at 4° C. and filtered through a 0.2 μm filter unit (Corning).
The protein was purified using three sequential chromatography steps: Heparin sepharose CL-6B, polyU sepharose 4B, and Hitrap SP sepharose (Pharmacia). The chromatography buffers were identical to the lysis buffer but contained no lysozyme, deoxyribonuclease I, MgCl2 or protease inhibitor and the NaCl concentration of the buffer was adjusted according to the requirements for charging the protein onto the column. Each column was eluted with a NaCl gradient which varied in length from 5-50 column volumes depending on the column type. After the final chromatography step, the resulting purity of the enzyme is >90% based on SDS-PAGE analysis. The enzyme was aliquoted and stored at −80° C.
Standard HCV NS5B RdRp enzyme assay. HCV RdRp genotype 1b assays were run in a final volume of 60 μl in 96 well plates (Costar 3912). The assay buffer is composed of 20 mM Hepes, pH 7.5, 2.5 mM KCl, 2.5 mM MgCl2, 1 mM DTT, 1.6 U RNAse inhibitor (Promega N2515), 0.1 mg/ml BSA (Promega R3961), and 2% glycerol. All compounds were serially diluted (3-fold) in DMSO and diluted further in water such that the final concentration of DMSO in the assay was 2%. HCV RdRp genotype 1b enzyme was used at a final concentration of 28 nM. A polyA template was used at 6 nM, and a biotinylated oligo-dT12 primer was used at 180 nM final concentration. Template was obtained commercially (Amersham 27-4110). Biotinylated primer was prepared by Sigma Genosys. 3H-UTP was used at 0.6 μCi (0.29 μM total UTP). Reactions were initiated by the addition of enzyme, incubated at 30° C. for 60 min, and stopped by adding 25 μl of 50 mM EDTA containing SPA beads (4 μg/μl, Amersham RPNQ 0007). Plates were read on a Packard Top Count NXT after >1 hr incubation at room temperature.
Modified HCV NS5B RdRp enzyme assay. A modified enzyme assay was performed essentially as described for the standard enzyme assay except for the following: The biotinylated oligo dT12 primer was precaptured on streptavidin-coated SPA beads by mixing primer and beads in assay buffer and incubating at room temperature for one hour. Unbound primer was removed after centrifugation. The primer-bound beads were resuspended in 20 mM Hepes buffer, pH 7.5 and used in the assay at final concentrations of 20 nM primer and 0.67 μg/μl beads. Order of addition in the assay: enzyme (14 nM) was added to diluted compound followed by the addition of a mixture of template (0.2 nM), 3H-UTP (0.6 μCi, 0.29 μM), and primer-bound beads, to initiate the reaction; concentrations given are final. Reactions were allowed to proceed for 4 hours at 30° C.
IC50 values for compounds were determined using seven different. […]

The mark [2] stands for this setting: HCV replicon cells, FRET assay, read-out: EC50.
Setting [3] is: HCV NS5B RdRp genotype 1b, preincubation protocol, read-out: IC50.

A word on the pEC50: it is −log10 of the EC50, conventionally taken in molar units. What is called pIC50 is the negative decadic logarithm of the IC50, by convention in mol/L.

T1 sequence (P26663 2420-2992): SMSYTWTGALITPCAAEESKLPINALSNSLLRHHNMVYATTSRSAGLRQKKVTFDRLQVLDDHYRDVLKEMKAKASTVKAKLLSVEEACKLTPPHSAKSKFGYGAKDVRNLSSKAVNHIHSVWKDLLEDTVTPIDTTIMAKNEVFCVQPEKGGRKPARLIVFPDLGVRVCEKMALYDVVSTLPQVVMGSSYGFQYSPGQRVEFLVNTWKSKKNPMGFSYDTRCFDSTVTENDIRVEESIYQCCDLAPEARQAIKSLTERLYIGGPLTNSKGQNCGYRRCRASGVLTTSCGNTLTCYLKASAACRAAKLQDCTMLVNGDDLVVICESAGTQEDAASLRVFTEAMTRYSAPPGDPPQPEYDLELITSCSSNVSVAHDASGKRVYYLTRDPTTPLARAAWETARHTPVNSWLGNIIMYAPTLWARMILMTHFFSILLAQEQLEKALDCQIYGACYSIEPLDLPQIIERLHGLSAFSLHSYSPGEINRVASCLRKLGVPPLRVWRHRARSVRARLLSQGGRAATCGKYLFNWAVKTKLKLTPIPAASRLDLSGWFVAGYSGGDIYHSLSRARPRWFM

`COc1ccc2c(c1)[C@@H]1OCO[C@]1(C(=O)N1C3CCC1CN(C)C3)Cn1c-2c(C2CCCCC2)c2ccc(C(=O)NS(=O)(=O)N(C)C)cc21` (racemic) [Example 6, rac-(3aR,14bS)-10-Cyclohexyl-N-((dimethylamino)sulfonyl)-3a-((3-methyl-3,8-diazabicyclo[3.2.1]oct-8-yl)carbonyl)-13-(methyloxy)-3a,14b-dihydro-4H-[1,3]dioxolo[4,5-d]indolo[2,1-a][2]benzazepine-7-carboxamid] had a pEC50 in the assay on HCV replicon cells of 6.85. The compound further had a pIC50 in assay [1] of 6.37.

With `COc1ccc2c(c1)[C@@H]1OC(C)(C)O[C@]1(C(=O)N1C3CCC1CN(C)C3)Cn1c-2c(C2CCCCC2)c2ccc(C(=O)NS(=O)(=O)N(C)C)cc21` (racemic) [Example 5, rac-(3aR,4bS)-10-Cyclohexyl-N-((dimethylamino)sulfonyl)-2,2-dimethyl-3a-((3-methyl-3,8-diazabicyclo[3.2.1]oct-8-yl)carbonyl)-13-(methyloxy)-3a,14b-dihydro-4H-[1,3]dioxolo[4,5-d]indolo[2,1-a][2]benzazepine-7-carboxamid], the pEC50 in the assay with HCV replicon cells was 6.85. In assay [1], this compound had a negative logarithm of the IC50 (pIC50) of 6.23.

As to `COc1ccc2c(c1)[C@@H]1OC(C)(C)O[C@]1(C(=O)N(C)CCN(C)C)Cn1c-2c(C2CCCCC2)c2ccc(C(=O)NS(=O)(=O)N(C)C)cc21` (racemic) [Example 1, rac-(3aR,14bS)-10-Cyclohexyl-N^3a-(2-(dimethylamino)ethyl)-N^7-((dimethylamino)sulfonyl)-N^3a,2,2-trimethyl-13-(methyloxy)-4H-[1,3]dioxolo[4,5-d]indolo[2,1-a][2]benzazepine-3a,7(14bH)-dicarboxamide], the pEC50 in the assay with HCV replicon cells (setting [2]) is 6.89. In addition, the pIC50 in assay [1] (setting [3]) is 6.77.

`COc1ccc2c(c1)[C@@H]1OC(=O)O[C@]1(C(=O)N1C[C@@H](C)O[C@@H](C)C1)Cn1c-2c(C2CCCCC2)c2ccc(C(=O)NS(=O)(=O)N(C)C)cc21` (racemic) [Example 2, rac-(3aR,14bS)-10-Cyclohexyl-N-((dimethylamino)sulfonyl)-3a4(2R,6S)-2,6-dimethyl-4-morpholinyl)carbonyl)-13-(methyloxy)-2-oxo-3a,14b-dihydro-4H-[1,3]diaxolo[4,5-d]indolo[2,1-a][2]benzazepine-7-carboxamide]: the pEC50 with HCV replicon cells (setting [2]) is 7.23. The pIC50 in assay [1] (setting [3]) was 7.48.

Turning to `COc1ccc2c(c1)[C@@H]1OC(C)(C)O[C@]1(C(=O)N1C[C@@H](C)O[C@@H](C)C1)Cn1c-2c(C2CCCCC2)c2ccc(C(=O)NS(=O)(=O)N(C)C)cc21` (racemic) [Example 3, rac-(3aR,14bS)-10-Cyclohexyl-N-((dimethylamino)sulfonyl)-3a-(((2R,6S)-2,6-dimethyl-4-morpholinyl)carbonyl)-2,2-dimethyl-13-(methyloxy)-3a,14b-dihydro-4H-[1,3]dioxolo[4,5-d]indolo[2,1-a][2]benzazepine-7-carboxamide], in the assay on HCV replicon cells, the pEC50 is 6.77. In addition, the pIC50 in assay [1] (setting [3]) is 6.96.

For the compound `COc1ccc2c(c1)[C@@H]1OC(=O)O[C@]1(C(=O)N1C3CCC1CN(C)C3)Cn1c-2c(C2CCCCC2)c2ccc(C(=O)NS(=O)(=O)N(C)C)cc21` (racemic) [Example 4, rac-(3aR,14bS)-10-Cyclohexyl-N-((dimethylamino)sulfonyl)-3a-((3-methyl-3,8-diazabicyclo[3.2.1]oct-8-yl)carbonyl)-13-(methyloxy)-2-oxo-3a,14b-dihydro-4H-[1,3]dioxolo[4,5-d]indolo[2,1-a][2]benzazepine-7-carboxamid], the pEC50 in the assay with HCV replicon cells is 7.00. In assay [1], this compound had a pIC50 of 7.04.
